Legend:
CDK2/cyclin A = molecular target: T1, CDK2/cyclin A (Homo sapiens, UniProt P24941); assay: Inhibitory activity against CDK2/cyclin A enzyme (GST-RB phosphorylation, P32-γ-ATP, scintillation counting); assay type: biochemical; settings: 100 μM ATP, GST-RB substrate, 30° C. 30 minutes
T1 construct: made in house; host or cells: insect cells infected with baculoviruses
Description: (§1) Analysis of inhibitory activity against CDK2/cyclin A and CDK4/cyclin D1 enzyme.
(§2) The inhibitory activity against CDK2 is measured by referring to Kitagawa, M. et al., Oncogene 9:2549, 1994 and the inhibitory activity against CDK4 is measured by referring to Carlson, B. A. et al., Cancer Research 56:2473,1996.
(§3) As for CDK2, either the extract from the insect cell infected both with baculovirus which expresses CDK2 gene and baculovirus which expresses cyclin A gene or the active enzyme which had been purified therefrom was used. CDK4 enzyme was also obtained from the insect cell infected both with baculovirus expressing CDK4 gene and baculovirus expressing cyclin D1 gene. As the substrate for CDK2, either histon H1 or Rb protein was used. Rb protein was also used as the substrate for CDK4.
(§4) Specifically the activities of enzymes CDK2/cyclin A and CDK4/cyclin D1 were determined according to the following procedure.
(§5) 100 ng of enzyme was reacted in a total 1000 μl of 20 mM Tris (pH 8.0), 100 mM NaCl, 10 mM MgCl2 buffer solution containing 20 μg of GST-RB protein, 100 μM of ATP and 5 μCi of P32-γ-ATP at 30° C. for 30 minutes. Then, the enzyme reaction was stopped by adding EDTA to a concentration of 20 mM. Subsequently, 30 μl of 50% glutathione bead (purchased from Pharmacia) was added to attach GST-RB to the bead, which was washed three times with 20mM Tris (pH 8.0), 100 mM NaCl, 10 mM EDTA solution, and then scintillation counting was carried out. To analyze the inhibitory activity of the compound, the inhibitor having a proper concentration was added to the enzyme reaction solution, and then the enzyme activity was measured according to the above method.
(§6) The inhibitory activity of the compound of formula (1) according to the present invention against CDK2 and CDK4 is represented as IC50 value. The compounds which are not included in Examples(compound 63, 64, 65 and 66) were synthesized and purified according to the same procedure as examples, and then IC50 thereof was measured.

in vivo = settings: male, ICR, mouse, po
Description: The acute oral toxcities of the compounds 14, 17, 28, 39, 51 and 57 each of which is obtained in Examples 14, 17, 73,84, 96 and 102, respectively are investigated in the following.
Solutions containing a compound in several different concentrations from each other were prepared, and they were administered orally to ICR male mouse with a dose of 10 ml/kg.
After administration, lethality and symptoms for 7 days were observed, and LD50 (mg/kg) was calculated according to Litchfield-Wilcoxon' method.

CDK4/cyclin D1 = molecular target: T2, CDK4/cyclin D1 (Homo sapiens, UniProt P11802); assay: Inhibitory activity against CDK4/cyclin D1 enzyme (GST-RB phosphorylation, P32-γ-ATP, scintillation counting); assay type: biochemical; settings: CDK4/cyclin D1, 100 μM ATP, GST-RB substrate, 30° C. 30 minutes
T2 construct: made in house; host or cells: insect cells infected with baculoviruses
Description: as §1, §2, §3, §4, §5, §6

T2 sequence (P11802 whole entry, species assumed): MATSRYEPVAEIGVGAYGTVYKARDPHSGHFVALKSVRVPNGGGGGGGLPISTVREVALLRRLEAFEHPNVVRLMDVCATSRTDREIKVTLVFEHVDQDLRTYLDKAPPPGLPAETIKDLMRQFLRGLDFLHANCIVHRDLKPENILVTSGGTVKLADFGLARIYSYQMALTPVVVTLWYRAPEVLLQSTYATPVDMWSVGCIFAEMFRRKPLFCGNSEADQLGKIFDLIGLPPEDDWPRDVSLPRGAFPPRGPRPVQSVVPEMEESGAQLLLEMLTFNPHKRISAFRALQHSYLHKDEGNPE
T2 sequence (P24385 whole entry partner, species assumed): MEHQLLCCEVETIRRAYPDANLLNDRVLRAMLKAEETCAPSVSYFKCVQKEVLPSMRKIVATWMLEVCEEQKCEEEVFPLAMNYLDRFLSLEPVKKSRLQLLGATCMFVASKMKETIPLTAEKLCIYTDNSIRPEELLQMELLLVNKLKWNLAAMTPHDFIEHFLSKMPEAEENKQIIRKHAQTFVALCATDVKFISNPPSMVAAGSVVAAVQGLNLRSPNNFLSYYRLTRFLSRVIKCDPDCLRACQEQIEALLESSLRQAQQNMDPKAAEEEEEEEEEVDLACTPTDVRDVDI

O=c1c(O)c(-c2ccc(O)c(O)c2)oc2ccc(O)cc12 [Compound 14, 2-(3,4-dihydroxyphenyl)-3,6-dihydroxy-4H-chromen-4-one]
IC50 (CDK2/cyclin A): < 5 µM | LD50 at 7 days (in vivo): > 3000 mg/kg | IC50 (CDK4/cyclin D1): < 5 µM

O=c1c(O)c(-c2ccc(O)c(O)c2)oc2ccc(F)cc12 [Compound 17, 6-fluoro-2-(3,4-dihydroxyphenyl)-3-hydroxy-4H-chromen-4-one]
IC50 (CDK2/cyclin A): < 10 µM | LD50 at 7 days (in vivo): > 3000 mg/kg | IC50 (CDK4/cyclin D1): < 10 µM

Cc1ccc(S(=O)(=O)Nc2ccc3oc(-c4ccc(O)c(O)c4)c(O)c(=O)c3c2)cc1 [Compound 28, N-[2-(3,4-dihydroxyphenyl)-3-hydroxy-4-oxo-4H-chromen-6-yl]-4-methylbenzenesulfonamide]
IC50 (CDK2/cyclin A): 56 µM | LD50 at 7 days (in vivo): > 3000 mg/kg | IC50 (CDK4/cyclin D1): 7.8 µM

O=c1c(O)c(-c2ccc(O)c(O)c2)oc2ccc(NS(=O)(=O)c3ccc(F)c(F)c3)cc12 [Compound 38, N-[2-(3,4-dihydroxyphenyl)-3-hydroxy-4-oxo-4H-chromen-6-yl]-3,4-difluorobenzenesulfonamide]
IC50 (CDK2/cyclin A): 19 µM | IC50 (CDK4/cyclin D1): 2.6 µM

O=c1c(O)c(-c2ccc(O)c(O)c2)oc2ccc(NS(=O)(=O)c3ccc(C(F)(F)F)cc3)cc12 [Compound 39, N-[2-(3,4-dihydroxyphenyl)-3-hydroxy-4-oxo-4H-chromen-6-yl]-4-(trifluoromethyl)benzenesulfonamide]
IC50 (CDK2/cyclin A): 55 µM | LD50 at 7 days (in vivo): > 3000 mg/kg | IC50 (CDK4/cyclin D1): 6.4 µM

O=c1c(O)c(-c2ccc(O)c(O)c2)oc2ccc(NS(=O)(=O)c3ccc(Cl)c([N+](=O)[O-])c3)cc12 [Compound 40, 4-chloro-N-[2-(3,4-dihydroxyphenyl)-3-hydroxy-4-oxo-4H-chromen-6-yl]-3-nitrobenzenesulfonamide]
IC50 (CDK2/cyclin A): 80 µM | IC50 (CDK4/cyclin D1): 2.5 µM

O=c1c(O)c(-c2ccc(O)c(O)c2)oc2ccc(NS(=O)(=O)CCCCl)cc12 [Compound 41, 3-chloro-N-[2-(3,4-dihydroxyphenyl)-3-hydroxy-4-oxo-4H-chromen-6-yl]-1-propanesulfonamide]
IC50 (CDK2/cyclin A): 20 µM | IC50 (CDK4/cyclin D1): 6.5 µM

O=c1c(O)c(-c2ccc(O)c(O)c2)oc2ccc(NS(=O)(=O)c3ccc(F)cc3F)cc12 [Compound 42, N-[2-(3,4-dihydroxyphenyl)-3-hydroxy-4-oxo-4H-chromen-6-yl]-2,4-difluorobenzenesulfonamide]
IC50 (CDK2/cyclin A): 46 µM | IC50 (CDK4/cyclin D1): 4.3 µM

O=c1c(O)c(-c2ccc(O)c(O)c2)oc2ccc(NS(=O)(=O)c3ccc(F)cc3)cc12 [Compound 43, N-[2-(3,4-dihydroxyphenyl)-3-hydroxy-4-oxo-4H-chromen-6-yl]-4-fluorobenzenesulfonamide]
IC50 (CDK2/cyclin A): 8.6 µM | IC50 (CDK4/cyclin D1): 2.1 µM

O=C(N1CCc2ccc(S(=O)(=O)Nc3ccc4oc(-c5ccc(O)c(O)c5)c(O)c(=O)c4c3)cc2C1)C(F)(F)F [Compound 44, N-[2-(3,4-dihydroxyphenyl)-3-hydroxy-4-oxo-4H-chromen-6-yl]-2-(2,2,2-trifluoroacetyl)-1,2,3,4-tetrahydro-7-isoquinolinesulfonamide]
IC50 (CDK2/cyclin A): 4.1 µM | IC50 (CDK4/cyclin D1): 2.3 µM

O=C(O)c1ccc(S(=O)(=O)Nc2ccc3oc(-c4ccc(O)c(O)c4)c(O)c(=O)c3c2)cc1 [Compound 45, 4-({[2-(3,4-dihydroxyphenyl)-3-hydroxy-4-oxo-4H-chromen-6-yl]amino}sulfonyl)benzoic acid]
IC50 (CDK2/cyclin A): 28.2 µM | IC50 (CDK4/cyclin D1): 6 µM

O=c1c(O)c(-c2ccc(O)c(O)c2)oc2ccc(NS(=O)(=O)c3ccc4c(c3)CNCC4)cc12 [Compound 46, N-[2-(3,4-dihydroxyphenyl)-3-hydroxy-4-oxo-4H-chromen-6-yl]-1,2,3,4-tetrahydro-7-isoquinolinesulfonamide]
IC50 (CDK2/cyclin A): 82 µM | IC50 (CDK4/cyclin D1): 6.3 µM

O=c1c(O)c(-c2ccc(O)c(O)c2)oc2ccc(NS(=O)(=O)NC3CCCCC3)cc12 [Compound 47, N-Cyclohexyl-N′-[2-(3,4-dihydroxyphenyl)-3-hydroxy-4-oxo-4H-chromen-6-yl]sulfamide]
IC50 (CDK2/cyclin A): 65 µM | IC50 (CDK4/cyclin D1): 2 µM

CN1CCN(c2ccc(S(=O)(=O)Nc3ccc4oc(-c5ccc(O)c(O)c5)c(O)c(=O)c4c3)cc2[N+](=O)[O-])CC1 [Compound 49, N-[2-(3,4-dihydroxyphenyl)-3-hydroxy-4-oxo-4H-chromen-6-yl]-4-(4-methyl-1-piperazinyl)-3-nitrobenzenesulfonamide]
IC50 (CDK2/cyclin A): 31 µM | IC50 (CDK4/cyclin D1): 1.6 µM

CN1CCN(c2ccc(S(=O)(=O)Nc3ccc4oc(-c5ccc(O)c(O)c5)c(O)c(=O)c4c3)cc2N)CC1 [Compound 50, 3-amino-N-[2-(3,4-dihydroxyphenyl)-3-hydroxy-4-oxo-4H-chromen-6-yl]-4-(4-methyl-1-piperazinyl)benzenesulfonamide]
IC50 (CDK2/cyclin A): > 200 µM | IC50 (CDK4/cyclin D1): 30 µM

O=C(Nc1ccc2oc(-c3ccc(O)c(O)c3)c(O)c(=O)c2c1)c1ccccc1 [Compound 52, N-[2-(3,4-dihydroxyphenyl)-3-hydroxy-4-oxo-4H-chromen-6-yl]benzamide]
IC50 (CDK2/cyclin A): 23 µM | IC50 (CDK4/cyclin D1): 6 µM

O=C(Nc1ccc2oc(-c3ccc(O)c(O)c3)c(O)c(=O)c2c1)c1ccc(Cl)cc1 [Compound 53, 4-chloro-N-[2-(3,4-dihydroxyphenyl)-3-hydroxy-4-oxo-4H-chromen-6-yl]benzamide]
IC50 (CDK2/cyclin A): > 100 µM | IC50 (CDK4/cyclin D1): 5.6 µM

O=C(NCc1ccccc1)Nc1ccc2oc(-c3ccc(O)c(O)c3)c(O)c(=O)c2c1 [Compound 54, N-benzyl-N′-[2-(3,4-dihydroxyphenyl)-3-hydroxy-4-oxo-4H-chromen-6-yl]urea]
IC50 (CDK2/cyclin A): 2.3 µM | IC50 (CDK4/cyclin D1): 2.8 µM

O=C(Nc1ccc(Br)cc1)Nc1ccc2oc(-c3ccc(O)c(O)c3)c(O)c(=O)c2c1 [Compound 55, N-(4-bromophenyl)-N′-[2-(3,4-dihydroxyphenyl)-3-hydroxy-4-oxo-4H-chromen-6-yl]urea]
IC50 (CDK2/cyclin A): 1.3 µM | IC50 (CDK4/cyclin D1): 0.7 µM

O=C(Nc1ccccc1)Nc1ccc2oc(-c3ccc(O)c(O)c3)c(O)c(=O)c2c1 [Compound 56, N-[2-(3,4-dihydroxyphenyl)-3-hydroxy-4-oxo-4H-chromen-6-yl]-N′-phenylurea]
IC50 (CDK2/cyclin A): 5 µM | IC50 (CDK4/cyclin D1): 4.2 µM

O=C(Nc1cccc(Br)c1)Nc1ccc2oc(-c3ccc(O)c(O)c3)c(O)c(=O)c2c1 [Compound 58, N-(3-bromophenyl)-N′-[2-(3,4-dihydroxyphenyl)-3-hydroxy-4-oxo-4H-chromen-6-yl]urea]
IC50 (CDK2/cyclin A): 4.2 µM | IC50 (CDK4/cyclin D1): 4.2 µM

O=C(Nc1ccc2oc(-c3ccc(O)c(O)c3)c(O)c(=O)c2c1)Nc1ccc(Cl)cc1Cl [Compound 59, N-(2,4-dichlorophenyl)-N′-[2-(3,4-dihydroxyphenyl)-3-hydroxy-4-oxo-4H-chromen-6-yl]-urea]
IC50 (CDK2/cyclin A): 20 µM | IC50 (CDK4/cyclin D1): 10 µM

N#Cc1cccc(NC(=O)Nc2ccc3oc(-c4ccc(O)c(O)c4)c(O)c(=O)c3c2)c1 [Compound 60, N-(3-cyanophenyl)-N′-[2-(3,4-dihydroxyphenyl)-3-hydroxy-4-oxo-4H-chromen-6-yl]urea]
IC50 (CDK2/cyclin A): 4.7 µM | IC50 (CDK4/cyclin D1): 2.7 µM

O=C(Nc1ccc([N+](=O)[O-])cc1)Nc1ccc2oc(-c3ccc(O)c(O)c3)c(O)c(=O)c2c1 [Compound 61, N-[2-(3,4-dihydroxyphenyl)-3-hydroxy-4-oxo-4H-chromen-6-yl]-N′-(4-nitrophenyl)urea]
IC50 (CDK2/cyclin A): 5.6 µM | IC50 (CDK4/cyclin D1): 1.7 µM

Nc1ccc(NC(=O)Nc2ccc3oc(-c4ccc(O)c(O)c4)c(O)c(=O)c3c2)cc1 [Compound 62, N-(4-aminophenyl)-N′-[2-(3,4-dihydroxyphenyl)-3-hydroxy-4-oxo-4H-chromen-6-yl]urea]
IC50 (CDK2/cyclin A): 2.6 µM | IC50 (CDK4/cyclin D1): 2.3 µM

O=c1c(O)c(-c2ccc(O)c(O)c2)oc2ccccc12 [Compound 63, 2-(3,4-dihydroxyphenyl)-3-hydoxy-4H-chromen-4-one]
IC50 (CDK2/cyclin A): < 10 µM | IC50 (CDK4/cyclin D1): < 10 µM

O=c1c(O)c(-c2ccc(O)c(O)c2)oc2cc(O)ccc12 [Compound 64, 2-(3,4-dihydroxyphenyl)-3,7-dihydroxy-4H-chromen-4-one]
IC50 (CDK2/cyclin A): < 5 µM | IC50 (CDK4/cyclin D1): < 10 µM

O=c1c(O)c(-c2ccc(O)c(O)c2)oc2cc(O)cc(O)c12 [Compound 65, 2-(3,4-dihydroxyphenyl)-3,5,7-trihydroxy-4H-chromen-4-one]
IC50 (CDK2/cyclin A): < 50 µM | IC50 (CDK4/cyclin D1): < 50 µM

O=c1c(O)c(-c2ccc(O)c(O)c2)oc2c(O)c(O)ccc12 [Compound 66, 2-(3,4-dihydroxyphenyl)-3,7,8-trihydroxy-4H-chromen-4-one]
IC50 (CDK2/cyclin A): < 10 µM | IC50 (CDK4/cyclin D1): < 10 µM

— patent US6500846B1, “CDK inhibitors having flavone structure” (LG Chemical, Ltd., priority 1998, dated 2002)
